Assay results reported in patent US20240182487A1, “MACROCYCLES AND THEIR USE” (BLOSSOMHILL THERAPEUTICS, INC., priority 2020, published 2024).

Legend:
Type in all cases: biochemical
EGFR L858R/C797S mutant = EGFR L858R/C797S mutant (Homo sapiens (Human), UniProt P00533, C797S/L858R); test: HotSpot radiometric kinase assay, EGFR L858R/C797S; details: radiometric filter-binding, 10 μM ATP
[1] = target: EGFR Δ746-750/T790M mutant (Homo sapiens (Human), UniProt P00533, DEL746-750/T790M); test: HotSpot radiometric kinase assay, EGFR Δ746-750/T790M; details: radiometric filter-binding, 10 μM ATP
Procedure: (§1) Biochemical Assays for Inhibition of Wild-Type and Mutant EGFRs
(§2) The inhibitory activities against EGFR WT, EGFR Δ752-759 mutant, EGFR Δ746-750/T790M mutant, EGFR Δ746-750/C797S mutant, EGFR Δ746-750/T790M/C797S mutant. […] Briefly, specific kinase/substrate pairs along with required cofactors were prepared in reaction buffer; 20 mM Hepes pH 7.5, 10 mM MgCl2, 1 mM EGTA, 0.02% Brij35, 0.02 mg/ml BSA, 0.1 mM Na3VO4, 2 mM DTT, 1% DMSO. Compounds were delivered into the reaction, followed ˜20 minutes later by addition of a mixture of ATP (Sigma, St. Louis MO) and ^33P ATP (Perkin Elmer, Waltham MA) to a final concentration of 10 μM. Reactions were carried out at room temperature for 120 min, followed by spotting of the reactions onto P81 ion exchange filter paper (Whatman Inc., Piscataway, NJ). Unbound phosphate was removed by extensive washing of filters in 0.75% phosphoric acid. […] IC50 values and curve fits were obtained using Prism (GraphPad Software).

EGFR L858R/T790M mutant = EGFR L858R/T790M mutant (Homo sapiens (Human), UniProt P00533, L858R/T790M); test: HotSpot radiometric kinase assay, EGFR L858R/T790M; details: radiometric filter-binding, 10 μM ATP; read-out: EGFR (L858R/T790M)_IC50
[2] = target: EGFR L858R/T790M/C797S mutant (Homo sapiens (Human), UniProt P00533, C797S/L858R/T790M); test: HotSpot radiometric kinase assay, EGFR L858R/T790M/C797S; details: radiometric filter-binding, 10 μM ATP; read-out: EGFR (L858R/T790M/C797S/)_IC50
EGFR (Δ746-750) = EGFR (Δ746-750) (Homo sapiens (Human), UniProt P00533, DEL746-750); test: HotSpot radiometric kinase assay, EGFR Δ746-750; details: radiometric filter-binding, 10 μM ATP
[3] = target: EGFR Δ746-750/C797S mutant (Homo sapiens (Human), UniProt P00533, C797S/DEL746-750); test: HotSpot radiometric kinase assay, EGFR Δ746-750/C797S; details: radiometric filter-binding, 10 μM ATP
Procedure: as §1, §2

EGFR L858R mutant = EGFR L858R mutant (Homo sapiens (Human), UniProt P00533, L858R); test: HotSpot radiometric kinase assay, EGFR L858R; details: radiometric filter-binding, 10 μM ATP
[4] = target: EGFR Δ746-750/T790M/C797S mutant (Homo sapiens (Human), UniProt P00533, C797S/DEL746-750/T790M); test: HotSpot radiometric kinase assay, EGFR Δ746-750/T790M/C797S; details: radiometric filter-binding, 10 μM ATP
Procedure: as §1, §2

EGFR WT = EGFR WT (Homo sapiens (Human), UniProt P00533); test: HotSpot radiometric kinase assay, EGFR WT; details: radiometric filter-binding, 10 μM ATP
Procedure: as §1, §2

EGFR Δ746-750/T790M/C797S mutant, sequence (P00533 other isoform, or with tags, fused parts or gaps T790M/C797S/del 1-668/del 746-750 limits assumed): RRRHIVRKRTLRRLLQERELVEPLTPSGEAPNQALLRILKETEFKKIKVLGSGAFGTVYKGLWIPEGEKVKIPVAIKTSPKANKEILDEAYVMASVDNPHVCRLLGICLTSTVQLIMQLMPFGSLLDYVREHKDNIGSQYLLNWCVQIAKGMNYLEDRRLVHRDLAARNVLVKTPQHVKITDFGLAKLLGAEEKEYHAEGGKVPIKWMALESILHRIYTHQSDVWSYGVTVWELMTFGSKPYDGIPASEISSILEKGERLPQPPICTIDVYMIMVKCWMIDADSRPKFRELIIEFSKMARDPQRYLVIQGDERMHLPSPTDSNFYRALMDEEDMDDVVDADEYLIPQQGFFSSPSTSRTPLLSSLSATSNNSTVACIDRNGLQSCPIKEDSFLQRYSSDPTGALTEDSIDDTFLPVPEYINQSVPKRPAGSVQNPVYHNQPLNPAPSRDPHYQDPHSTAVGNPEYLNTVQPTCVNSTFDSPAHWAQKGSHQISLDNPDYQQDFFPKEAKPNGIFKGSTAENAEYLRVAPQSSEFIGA
EGFR L858R mutant, sequence (P00533 25-1210 L858R): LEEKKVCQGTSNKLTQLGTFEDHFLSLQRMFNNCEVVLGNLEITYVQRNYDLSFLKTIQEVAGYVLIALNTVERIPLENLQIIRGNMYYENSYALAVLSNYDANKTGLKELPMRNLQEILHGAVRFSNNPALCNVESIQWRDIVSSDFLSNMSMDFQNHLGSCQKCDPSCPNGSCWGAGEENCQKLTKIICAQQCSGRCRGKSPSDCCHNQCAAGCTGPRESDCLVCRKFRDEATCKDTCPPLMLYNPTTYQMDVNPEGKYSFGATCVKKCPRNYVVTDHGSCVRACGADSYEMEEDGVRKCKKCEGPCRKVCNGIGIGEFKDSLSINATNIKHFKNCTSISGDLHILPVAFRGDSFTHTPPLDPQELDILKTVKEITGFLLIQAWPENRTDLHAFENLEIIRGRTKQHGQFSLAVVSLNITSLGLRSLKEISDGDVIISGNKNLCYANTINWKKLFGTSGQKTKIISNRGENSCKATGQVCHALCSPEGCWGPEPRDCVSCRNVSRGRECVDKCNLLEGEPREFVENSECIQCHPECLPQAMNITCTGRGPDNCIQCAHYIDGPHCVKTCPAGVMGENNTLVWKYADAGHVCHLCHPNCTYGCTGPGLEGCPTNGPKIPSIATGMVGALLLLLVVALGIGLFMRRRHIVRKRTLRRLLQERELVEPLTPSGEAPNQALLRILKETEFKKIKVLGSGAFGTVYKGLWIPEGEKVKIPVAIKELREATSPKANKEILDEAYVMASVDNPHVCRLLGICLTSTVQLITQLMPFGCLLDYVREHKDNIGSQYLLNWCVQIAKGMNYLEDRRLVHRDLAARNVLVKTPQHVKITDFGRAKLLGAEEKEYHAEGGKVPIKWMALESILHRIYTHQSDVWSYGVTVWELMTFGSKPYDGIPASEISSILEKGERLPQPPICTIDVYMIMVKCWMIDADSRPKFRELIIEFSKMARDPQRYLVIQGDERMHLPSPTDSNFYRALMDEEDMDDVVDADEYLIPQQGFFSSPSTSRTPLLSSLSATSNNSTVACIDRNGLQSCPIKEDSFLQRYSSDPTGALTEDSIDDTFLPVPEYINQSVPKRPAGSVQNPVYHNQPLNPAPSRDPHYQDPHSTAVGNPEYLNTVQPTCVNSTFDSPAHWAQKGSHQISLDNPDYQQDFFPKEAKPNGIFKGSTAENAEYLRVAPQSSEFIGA
EGFR WT, sequence (P00533 25-1210): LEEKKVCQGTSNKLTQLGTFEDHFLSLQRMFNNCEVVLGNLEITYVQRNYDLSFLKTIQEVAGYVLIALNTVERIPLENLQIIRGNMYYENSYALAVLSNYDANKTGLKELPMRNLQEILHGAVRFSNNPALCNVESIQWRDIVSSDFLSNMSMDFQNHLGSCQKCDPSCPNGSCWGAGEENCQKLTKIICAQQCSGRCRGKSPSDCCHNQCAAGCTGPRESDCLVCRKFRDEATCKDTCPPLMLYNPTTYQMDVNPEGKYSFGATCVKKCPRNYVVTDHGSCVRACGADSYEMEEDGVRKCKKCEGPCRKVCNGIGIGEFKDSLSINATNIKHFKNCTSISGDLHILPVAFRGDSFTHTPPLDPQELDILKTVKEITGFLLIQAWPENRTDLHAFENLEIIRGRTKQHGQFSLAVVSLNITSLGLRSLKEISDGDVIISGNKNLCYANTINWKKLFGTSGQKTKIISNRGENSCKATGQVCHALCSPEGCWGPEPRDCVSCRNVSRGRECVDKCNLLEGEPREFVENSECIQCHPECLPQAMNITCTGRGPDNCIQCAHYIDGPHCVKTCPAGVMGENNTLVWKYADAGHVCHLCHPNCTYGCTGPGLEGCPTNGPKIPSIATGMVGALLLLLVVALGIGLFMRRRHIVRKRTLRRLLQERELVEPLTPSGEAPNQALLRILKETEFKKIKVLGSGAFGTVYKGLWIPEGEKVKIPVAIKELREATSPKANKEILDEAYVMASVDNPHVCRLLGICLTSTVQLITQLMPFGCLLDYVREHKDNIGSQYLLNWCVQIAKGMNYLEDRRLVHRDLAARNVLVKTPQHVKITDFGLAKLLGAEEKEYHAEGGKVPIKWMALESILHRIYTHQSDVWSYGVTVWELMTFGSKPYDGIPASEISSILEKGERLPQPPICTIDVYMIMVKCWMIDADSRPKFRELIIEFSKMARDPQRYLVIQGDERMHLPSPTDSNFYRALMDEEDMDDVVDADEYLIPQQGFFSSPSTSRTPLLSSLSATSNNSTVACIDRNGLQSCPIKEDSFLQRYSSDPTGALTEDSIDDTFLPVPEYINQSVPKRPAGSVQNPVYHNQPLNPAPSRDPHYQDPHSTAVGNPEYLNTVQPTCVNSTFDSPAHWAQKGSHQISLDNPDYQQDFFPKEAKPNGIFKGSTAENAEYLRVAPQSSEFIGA
EGFR Δ746-750/C797S mutant, sequence (P00533 other isoform, or with tags, fused parts or gaps C797S/del 1-668/del 746-750 limits assumed): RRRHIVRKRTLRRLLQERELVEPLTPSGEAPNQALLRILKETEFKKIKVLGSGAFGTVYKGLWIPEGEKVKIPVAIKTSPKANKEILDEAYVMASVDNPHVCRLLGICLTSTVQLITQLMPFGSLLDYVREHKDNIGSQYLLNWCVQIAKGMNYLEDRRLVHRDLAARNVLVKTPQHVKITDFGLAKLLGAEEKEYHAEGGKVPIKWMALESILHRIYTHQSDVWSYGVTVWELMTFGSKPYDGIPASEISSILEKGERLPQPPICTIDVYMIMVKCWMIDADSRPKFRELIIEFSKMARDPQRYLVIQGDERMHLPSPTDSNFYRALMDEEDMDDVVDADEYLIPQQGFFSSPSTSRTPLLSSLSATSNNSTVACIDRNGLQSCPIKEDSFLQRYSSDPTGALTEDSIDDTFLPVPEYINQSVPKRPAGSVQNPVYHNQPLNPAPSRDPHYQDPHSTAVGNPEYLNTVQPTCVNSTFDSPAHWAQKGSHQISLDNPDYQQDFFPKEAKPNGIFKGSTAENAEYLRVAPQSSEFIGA
EGFR L858R/C797S mutant, sequence (P00533 25-1210 C797S/L858R): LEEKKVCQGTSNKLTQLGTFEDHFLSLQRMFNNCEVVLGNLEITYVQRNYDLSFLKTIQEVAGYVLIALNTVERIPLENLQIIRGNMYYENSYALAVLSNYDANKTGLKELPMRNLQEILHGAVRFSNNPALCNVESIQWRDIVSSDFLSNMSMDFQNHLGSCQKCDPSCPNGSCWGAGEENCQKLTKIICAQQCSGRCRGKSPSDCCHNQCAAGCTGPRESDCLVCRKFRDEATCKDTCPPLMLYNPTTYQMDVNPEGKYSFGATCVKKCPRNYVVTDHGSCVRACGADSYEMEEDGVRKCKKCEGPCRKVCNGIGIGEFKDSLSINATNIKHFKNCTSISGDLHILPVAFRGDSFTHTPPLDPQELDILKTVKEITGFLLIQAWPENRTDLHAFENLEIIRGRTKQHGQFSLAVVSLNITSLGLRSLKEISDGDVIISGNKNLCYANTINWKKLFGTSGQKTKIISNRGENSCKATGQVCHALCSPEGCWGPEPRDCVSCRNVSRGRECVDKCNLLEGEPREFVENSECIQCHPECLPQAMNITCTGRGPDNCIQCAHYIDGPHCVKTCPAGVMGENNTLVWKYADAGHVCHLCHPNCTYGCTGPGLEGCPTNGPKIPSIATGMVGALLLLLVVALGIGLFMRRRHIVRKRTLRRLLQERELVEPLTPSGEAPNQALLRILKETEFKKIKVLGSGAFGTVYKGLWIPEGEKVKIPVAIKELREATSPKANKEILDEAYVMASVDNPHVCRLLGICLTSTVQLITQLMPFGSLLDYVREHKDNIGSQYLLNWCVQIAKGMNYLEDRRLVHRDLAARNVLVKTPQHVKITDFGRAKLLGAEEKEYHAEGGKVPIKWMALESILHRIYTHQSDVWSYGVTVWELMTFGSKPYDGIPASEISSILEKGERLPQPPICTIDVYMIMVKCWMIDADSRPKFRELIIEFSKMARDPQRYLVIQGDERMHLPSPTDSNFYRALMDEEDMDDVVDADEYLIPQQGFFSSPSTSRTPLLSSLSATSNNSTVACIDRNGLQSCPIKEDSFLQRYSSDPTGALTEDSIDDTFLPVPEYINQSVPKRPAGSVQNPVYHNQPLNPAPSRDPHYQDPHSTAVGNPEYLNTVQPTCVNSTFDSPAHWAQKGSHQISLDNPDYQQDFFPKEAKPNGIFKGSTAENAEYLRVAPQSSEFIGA

- IC50 (EGFR L858R/C797S mutant): 1070 nM
- IC50 [1]: 13.2 nM
- IC50 (EGFR L858R/T790M mutant): 138 nM
- IC50 [2]: 278 nM
- IC50 (EGFR (Δ746-750)): 79 nM
- IC50 [3]: 24.4 nM
- IC50 (EGFR L858R mutant): 374 nM
- IC50 [4]: 10.2 nM
- IC50 (EGFR WT): 1050 nM
SMILES: Cn1ncc2c1OCCCOc1ccccc1/C=C/c1n[nH]c3ccc-2cc13 [Cpd. 3, (11E)-1-methyl-19,20-dihydro-1H,8H,18H-10,7,4-(ethan[1]yl[1,2]diylidene)pyrazolo[3,4-f][1,5,12,13]benzodioxadiazacyclooctadecine]
